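Method: 48-hour compound exposure of cells in 96-well plates, five concentrations, linear interpolation of endpoints. TGI: total growth inhibition.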
Columns and labels:
Test in all cases: inhibition of tumour cell growth, NCI panel, 48 h
SW-620 colon = test system: SW-620 colon
SN12C renal = test system: SN12C renal
RPMI-8226 leukemia = test system: RPMI-8226 leukemia
K-562 leukemia = test system: K-562 leukemia
HCT-116 colon = test system: HCT-116 colon
SK-MEL-2 melanoma = test system: SK-MEL-2 melanoma
KM12 colon = test system: KM12 colon
SF-268 CNS = test system: SF-268 CNS
UO-31 renal = test system: UO-31 renal
XF 498 CNS = test system: XF 498 CNS
DMS 114 small cell lung = test system: DMS 114 small cell lung
SNB-75 CNS = test system: SNB-75 CNS
LOX IMVI melanoma = test system: LOX IMVI melanoma
EKVX NSCLC = test system: EKVX NSCLC
CCRF-CEM leukemia = test system: CCRF-CEM leukemia
SK-MEL-28 melanoma = test system: SK-MEL-28 melanoma
SF-295 CNS = test system: SF-295 CNS
HCT-15 colon = test system: HCT-15 colon
SNB-19 CNS = test system: SNB-19 CNS
SK-OV-3 ovarian = test system: SK-OV-3 ovarian
UACC-257 melanoma = test system: UACC-257 melanoma
SK-MEL-5 melanoma = test system: SK-MEL-5 melanoma
OVCAR-8 ovarian = test system: OVCAR-8 ovarian
NCI-H522 lung = test system: NCI-H522 lung
M14 melanoma = test system: M14 melanoma
A549 NSCLC = test system: A549 NSCLC
NCI-H460 lung = test system: NCI-H460 lung
LXFL 529 NSCLC = test system: LXFL 529 NSCLC
NCI-H226 lung = test system: NCI-H226 lung
HOP-62 NSCLC = test system: HOP-62 NSCLC
OVCAR-3 ovarian = test system: OVCAR-3 ovarian
HCC-2998 colon = test system: HCC-2998 colon
COLO 205 colon = test system: COLO 205 colon
A498 renal = test system: A498 renal
OVCAR-4 ovarian = test system: OVCAR-4 ovarian
SF-539 CNS = test system: SF-539 CNS
UACC-62 melanoma = test system: UACC-62 melanoma
ACHN renal = test system: ACHN renal
U251 CNS = test system: U251 CNS
OVCAR-5 ovarian = test system: OVCAR-5 ovarian
DMS 273 small cell lung = test system: DMS 273 small cell lung
RXF-631 renal = test system: RXF-631 renal
MALME-3M melanoma = test system: MALME-3M melanoma
DLD-1 colon = test system: DLD-1 colon
CAKI-1 renal = test system: CAKI-1 renal
HL-60(TB) leukemia = test system: HL-60(TB) leukemia
786-0 renal = test system: 786-0 renal
IGROV1 ovarian = test system: IGROV1 ovarian
TK-10 renal = test system: TK-10 renal
NCI-H23 lung = test system: NCI-H23 lung
MOLT-4 leukemia = test system: MOLT-4 leukemia
KM20L2 colon = test system: KM20L2 colon
HT29 colon = test system: HT29 colon
RXF 393 renal = test system: RXF 393 renal
HOP-92 NSCLC = test system: HOP-92 NSCLC
M19-MEL melanoma = test system: M19-MEL melanoma
HOP-18 NSCLC = test system: HOP-18 NSCLC
SNB-78 CNS = test system: SNB-78 CNS
SR leukemia = test system: SR leukemia

Measured: TGI

COc1ccc(N=NC(C(=O)c2ccccc2)C(=O)c2ccccc2)cc1
74.8 µM: SNB-75 CNS
32.7 µM: HL-60(TB) leukemia
71.9 µM: XF 498 CNS
34 µM: SK-MEL-5 melanoma
74 µM: HT29 colon
96 µM: SK-OV-3 ovarian
56.7 µM: DMS 273 small cell lung
61.2 µM: SK-MEL-2 melanoma
53.7 µM: RPMI-8226 leukemia
91.1 µM: HCC-2998 colon
54.6 µM: DMS 114 small cell lung
45 µM: NCI-H522 lung
38.8 µM: HCT-116 colon
87.1 µM: OVCAR-5 ovarian
71.1 µM: EKVX NSCLC
68.5 µM: HOP-62 NSCLC
47 µM: LOX IMVI melanoma
72.2 µM: MOLT-4 leukemia
68.4 µM: NCI-H460 lung
96.6 µM: DLD-1 colon
78.8 µM: SN12C renal
65.3 µM: NCI-H23 lung
58.2 µM: CCRF-CEM leukemia
33.4 µM: M14 melanoma
84.9 µM: SF-539 CNS
56.1 µM: UACC-62 melanoma
86.1 µM: ACHN renal
61 µM: 786-0 renal
97 µM: MALME-3M melanoma
51.7 µM: UO-31 renal
64 µM: KM20L2 colon
29.9 µM: NCI-H226 lung
75 µM: A549 NSCLC
80.3 µM: SNB-19 CNS
not listed: RXF 393 renal | HOP-92 NSCLC | M19-MEL melanoma | HOP-18 NSCLC | SNB-78 CNS | SR leukemia
> 100 µM: all other assays above

CC1=Nc2c(ccc3c2C(=O)c2ccccc2C3=O)NC(c2cccc3c2CCC3)C1 (stereo not drawn)
> 72.6 µM: M19-MEL melanoma
> 96.8 µM: CAKI-1 renal
not listed: DMS 114 small cell lung
> 100 µM: all other assays above

O=C(Cc1nc2ccccc2c(=O)n1-c1ccccc1Cl)c1ccncc1
71.7 µM: SNB-75 CNS
not listed: RPMI-8226 leukemia | XF 498 CNS | SR leukemia
> 100 µM: all other assays above

Cc1ccccc1NC(=O)c1cc(-c2ccc([N+](=O)[O-])cc2)nc(=S)[nH]1
not listed: RPMI-8226 leukemia | XF 498 CNS | SNB-75 CNS | CCRF-CEM leukemia | NCI-H522 lung | A498 renal | M19-MEL melanoma | SR leukemia
> 100 µM: all other assays above
